Source: ChEMBL document CHEMBL1201862, “PubChem BioAssay data set” (2004)
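In this assay, cells in 96-well plates receive the compound at five concentrations for 48 hours. Endpoints are linearly interpolated between the surrounding concentrations. GI50 marks 50% less growth.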 The source made the active and inactive calls. Rule as the data show it: active = GI50 up to about 1.1 µM and inactive = higher. *1 amine or outer side, *2 acyl side, *3 side chain or, on linkers, in order; H or OH if unused. Where a SMILES comes first, the peptide text is derived from it. Bridges are numbered along the chain shown (N, C = ends). [ ]: non-standard residue; d: D form. The star is where a group is joined. X56 = CC(C)C(C)C(C(=O)[*:2])N(C)[*:1]; Picolinoyl(3-OH) = O=C(c1ncccc1O)*; NMePhg = CN[CH](C(=O)O)c1ccccc1; Hyp = O=C(O)[CH]1C[CH](O)CN1; Sar = CNCC(=O)O

Tests used:
Experiment in all cases: inhibition of tumour cell growth, NCI panel, 48 h
IGROV-1 = system: IGROV-1
SF-268 = system: SF-268
HCT-15 = system: HCT-15
CAKI-1 = system: CAKI-1
SK-MEL-2 = system: SK-MEL-2
KM12 = system: KM12
Malme-3M = system: Malme-3M
SK-MEL-28 = system: SK-MEL-28
SNB-75 = system: SNB-75
NCI-H226 = system: NCI-H226
UACC-257 = system: UACC-257
HL-60 = system: HL-60
HCT-116 = system: HCT-116
SW-620 = system: SW-620
A498 = system: A498
M19-MEL = system: M19-MEL
SNB-19 = system: SNB-19
HCC 2998 = system: HCC 2998
LOX IMVI = system: LOX IMVI
DMS-114 = system: DMS-114

Structure (SMILES): CC(C)CC1NC(=O)C(NC(=O)c2ncccc2O)C(C)OC(=O)C(c2ccccc2)N(C)C(=O)C(C)NC(=O)C(C(C)C(C)C)N(C)C(=O)CN(C)C(=O)C2CC(O)CN2C1=O (stereo not given) ({Picolinoyl(3-OH)}-TL[Hyp][Sar][X56]A[NMePhg]; ester 1-C; configuration not given here)
- GI50 (IGROV-1): 23.8 µM (inactive)
- GI50 (SF-268): 51.3 µM (inactive)
- GI50 (HCT-15): 105 µM
- GI50 (CAKI-1): 89.1 µM (inactive)
- GI50 (SK-MEL-2): 38.7 µM (inactive)
- GI50 (KM12): 80.4 µM (inactive)
- GI50 (Malme-3M): 55.5 µM (inactive)
- GI50 (SK-MEL-28): 102 µM (inactive)
- GI50 (SNB-75): 36.7 µM (inactive)
- GI50 (NCI-H226): 71.1 µM (inactive)
- GI50 (UACC-257): 58.2 µM (inactive)
- GI50 (HL-60): 58.9 µM (inactive)
- GI50 (HCT-116): 26.9 µM (inactive)
- GI50 (SW-620): 32.7 µM (inactive)
- GI50 (A498): > 107 µM (inactive)
- GI50 (M19-MEL): 68.2 µM (inactive)
- GI50 (SNB-19): 115 µM (inactive)
- GI50 (HCC 2998): 78.7 µM (inactive)
- GI50 (LOX IMVI): > 125 µM (inactive)
- GI50 (DMS-114): > 119 µM (inactive)
